Results as given in ChEMBL document CHEMBL1127175, “4-hydroxyphenoxymethylene bisphosphonic acid derivatives: potent, non-hydrolysable inhibitors of MYO-inositol monophosphatase” (Bioorg Med Chem Lett, 1993).

Target: T1, Inositol monophosphatase 1 (Bos taurus, UniProt P20456)
T1 sequence (P20456 whole entry): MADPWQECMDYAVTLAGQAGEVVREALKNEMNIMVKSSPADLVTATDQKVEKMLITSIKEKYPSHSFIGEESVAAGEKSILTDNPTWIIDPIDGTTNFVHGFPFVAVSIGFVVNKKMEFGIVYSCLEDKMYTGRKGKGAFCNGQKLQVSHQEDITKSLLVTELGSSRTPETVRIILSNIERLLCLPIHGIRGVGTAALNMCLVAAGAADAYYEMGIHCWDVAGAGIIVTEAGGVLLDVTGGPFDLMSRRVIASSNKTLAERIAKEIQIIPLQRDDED
Experiment: Tested for the inhibitory activity against recombinant bovine brain myo-inositol monophosphatase

IC50 | SMILES
19.2 µM | O=P(O)(O)C(Cc1ccccc1)(O[C@@H]1CC[C@@H](O)C[C@@H]1O)P(=O)(O)O
4 µM | CC(O[C@@H]1CC[C@@H](O)C[C@@H]1O)(P(=O)(O)O)P(=O)(O)O
0.5 µM | O=P(O)(O)C(Cc1ccccc1)(Oc1ccc(O)cc1)P(=O)(O)O
2.5 µM | O=P(O)(O)C(CCCCCCc1ccccc1)(O[C@@H]1CC[C@@H](O)C[C@@H]1O)P(=O)(O)O
0.08 µM | O=C(NCc1cccc(CC(Oc2ccc(O)cc2)(P(=O)(O)O)P(=O)(O)O)c1)c1ccc(Cl)c(Cl)c1

More lines, now with the values behind:

SMILES | IC50
O=P(O)(O)C(Oc1ccc(O)cc1)P(=O)(O)O | 27 µM
O=P(O)(O)C(Oc1ccc(O)cc1O)P(=O)(O)O | 40.8 µM
O=P(O)(O)C(O)(Cc1ccc(Cl)c(Cl)c1)P(=O)(O)O | 23 µM
CC(Oc1ccc(O)cc1)(P(=O)(O)O)P(=O)(O)O [L-690330] | 0.33 µM
CC(Oc1ccc(O)cc1O)(P(=O)(O)O)P(=O)(O)O | 4.4 µM
